{
  "source": "BindingDB's records for patent US9212173",
  "about": "(Genentech, 2015)",
  "molecular_target": "Leucine-rich repeat serine/threonine-protein kinase 2 (Homo sapiens, UniProt Q5S007)",
  "sequence (Q5S007 whole entry)": "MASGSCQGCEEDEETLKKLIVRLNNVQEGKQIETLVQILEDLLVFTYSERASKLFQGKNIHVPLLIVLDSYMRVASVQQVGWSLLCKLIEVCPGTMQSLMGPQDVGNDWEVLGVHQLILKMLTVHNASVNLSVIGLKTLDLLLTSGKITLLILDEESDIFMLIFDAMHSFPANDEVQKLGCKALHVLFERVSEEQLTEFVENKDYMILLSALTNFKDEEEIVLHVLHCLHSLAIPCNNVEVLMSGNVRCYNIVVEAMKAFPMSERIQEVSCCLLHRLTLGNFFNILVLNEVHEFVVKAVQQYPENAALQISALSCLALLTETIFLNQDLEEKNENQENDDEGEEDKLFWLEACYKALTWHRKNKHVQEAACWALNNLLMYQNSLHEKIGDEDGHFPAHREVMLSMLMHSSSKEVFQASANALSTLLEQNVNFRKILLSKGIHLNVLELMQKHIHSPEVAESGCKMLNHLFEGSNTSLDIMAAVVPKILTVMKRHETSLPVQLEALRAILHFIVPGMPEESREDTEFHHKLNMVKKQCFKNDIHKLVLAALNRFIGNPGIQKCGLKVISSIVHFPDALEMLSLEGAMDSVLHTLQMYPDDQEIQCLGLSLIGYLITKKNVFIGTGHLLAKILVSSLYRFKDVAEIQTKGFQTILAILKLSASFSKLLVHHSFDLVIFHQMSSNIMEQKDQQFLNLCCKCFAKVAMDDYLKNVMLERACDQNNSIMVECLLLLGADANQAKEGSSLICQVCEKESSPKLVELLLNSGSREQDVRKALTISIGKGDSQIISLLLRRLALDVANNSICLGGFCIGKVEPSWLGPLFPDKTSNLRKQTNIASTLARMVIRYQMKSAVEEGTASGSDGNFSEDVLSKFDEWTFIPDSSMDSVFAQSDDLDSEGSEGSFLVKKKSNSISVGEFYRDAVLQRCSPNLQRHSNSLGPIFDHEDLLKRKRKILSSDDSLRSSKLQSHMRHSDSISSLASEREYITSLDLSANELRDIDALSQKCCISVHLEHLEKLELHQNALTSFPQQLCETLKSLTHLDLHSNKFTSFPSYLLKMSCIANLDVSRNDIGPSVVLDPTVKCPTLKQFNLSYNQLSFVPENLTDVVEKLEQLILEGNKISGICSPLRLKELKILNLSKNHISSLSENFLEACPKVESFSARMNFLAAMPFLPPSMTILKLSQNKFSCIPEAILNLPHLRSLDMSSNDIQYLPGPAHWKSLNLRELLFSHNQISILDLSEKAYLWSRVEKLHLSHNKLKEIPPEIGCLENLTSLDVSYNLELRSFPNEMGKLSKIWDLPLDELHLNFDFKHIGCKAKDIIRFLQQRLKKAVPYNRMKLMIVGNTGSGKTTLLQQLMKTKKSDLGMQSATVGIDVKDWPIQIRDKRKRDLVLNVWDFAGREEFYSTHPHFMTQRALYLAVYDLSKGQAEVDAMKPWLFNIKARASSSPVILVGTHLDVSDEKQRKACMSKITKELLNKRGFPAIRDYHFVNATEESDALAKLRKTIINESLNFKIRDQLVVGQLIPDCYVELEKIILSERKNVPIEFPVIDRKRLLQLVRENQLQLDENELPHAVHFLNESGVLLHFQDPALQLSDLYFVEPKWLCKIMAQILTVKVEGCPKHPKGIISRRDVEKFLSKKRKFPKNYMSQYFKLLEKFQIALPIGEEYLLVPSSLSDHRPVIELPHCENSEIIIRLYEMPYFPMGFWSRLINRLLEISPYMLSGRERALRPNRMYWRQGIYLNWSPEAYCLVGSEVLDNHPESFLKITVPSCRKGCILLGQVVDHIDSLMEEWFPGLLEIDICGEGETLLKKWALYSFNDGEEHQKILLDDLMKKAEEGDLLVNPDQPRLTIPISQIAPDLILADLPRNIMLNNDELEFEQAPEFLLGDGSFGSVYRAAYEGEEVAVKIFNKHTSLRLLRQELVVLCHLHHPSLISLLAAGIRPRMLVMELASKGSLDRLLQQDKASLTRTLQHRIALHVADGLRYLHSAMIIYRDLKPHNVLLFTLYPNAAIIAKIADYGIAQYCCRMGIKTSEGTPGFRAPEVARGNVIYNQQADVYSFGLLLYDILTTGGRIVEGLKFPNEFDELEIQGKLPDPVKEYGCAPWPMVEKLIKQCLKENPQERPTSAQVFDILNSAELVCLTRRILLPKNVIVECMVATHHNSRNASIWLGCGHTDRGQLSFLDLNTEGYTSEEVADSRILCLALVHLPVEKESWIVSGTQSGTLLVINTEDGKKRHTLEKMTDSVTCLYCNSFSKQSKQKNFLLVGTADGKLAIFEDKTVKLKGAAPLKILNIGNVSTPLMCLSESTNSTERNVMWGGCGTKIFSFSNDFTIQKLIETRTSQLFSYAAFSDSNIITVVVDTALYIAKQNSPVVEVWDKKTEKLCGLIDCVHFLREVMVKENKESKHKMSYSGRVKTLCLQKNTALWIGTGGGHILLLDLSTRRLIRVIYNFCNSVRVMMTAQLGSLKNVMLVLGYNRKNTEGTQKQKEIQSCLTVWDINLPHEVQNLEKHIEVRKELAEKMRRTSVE",
  "assay": "Lanthascreen Binding Assay",
  "method": "This assay was used to determine a compound's potency in inhibiting activity of LRRK2 by determining, Kiapp, IC50, or percent inhibition values. In 384 well proxiplates F black, shallow well plates LRRK2, Eu-anti-GST-antibody, Alexa Fluor Kinase tracer 236 and test compound were incubated together.Binding of the Alexa Fluor tracer to a kinase is detected by addition of a Eu-labeled anti-GST antibody. Binding of the tracer and antibody to a kinase results in a high degree of FRET, whereas displacement of the tracer with a kinase inhibitor results in a loss of FRET. Assay conditions and materials used were as follows: Final Assay Conditions: GST-LRRK2 G2019S 10 nM Eu-anti-GST-antibody 2 nM Kinase tracer 236 8.5 nM Kinase reaction time: 1 hour Temperature: ambient Total volume: 15 ul DMSO 1% Materials: 384 well proxiplates F black shallow cat# 6008260 well Perkin Elmer Kinase: LRRK2 G2019S, Invitrogen cat # PV4882(LOT 567054A).",
  "data": [
    {"smiles": "CCn1cnnc1C(C)(C)n1cc(Nc2ncc(C(F)(F)F)c(NC)n2)c(Cl)n1", "note": "[US9212173, 11]", "values": [
      {"measurement": "Ki", "result": 0.155, "unit": "µM"}
    ]},
    {"smiles": "CCNc1nc(Nc2cn(C(C)(C)c3ncn(CC)n3)nc2Cl)ncc1C(F)(F)F", "note": "[US9212173, 14]", "values": [
      {"measurement": "Ki", "result": 0.0011, "unit": "µM"}
    ]}
  ]
}
